Assay results taken from patent publication US9102675B2, “3-Cyanoaryl-1H-pyrrolo[2,3-B] pyridine derivatives” (MERCK PATENT GMBH, priority 2011, dated 2015).
pIC50: −log10 of the molar value.

What follows are molecules tested against T1, IKKε (Homo sapiens, UniProt Q14164) (assay: IKKε kinase assay (384-well flashplate assay)). Settings: 10 μM ATP, 1 nM IKKε; read-out: IKKε enzyme assay IC50.
T1 sequence (Q14164 1-716): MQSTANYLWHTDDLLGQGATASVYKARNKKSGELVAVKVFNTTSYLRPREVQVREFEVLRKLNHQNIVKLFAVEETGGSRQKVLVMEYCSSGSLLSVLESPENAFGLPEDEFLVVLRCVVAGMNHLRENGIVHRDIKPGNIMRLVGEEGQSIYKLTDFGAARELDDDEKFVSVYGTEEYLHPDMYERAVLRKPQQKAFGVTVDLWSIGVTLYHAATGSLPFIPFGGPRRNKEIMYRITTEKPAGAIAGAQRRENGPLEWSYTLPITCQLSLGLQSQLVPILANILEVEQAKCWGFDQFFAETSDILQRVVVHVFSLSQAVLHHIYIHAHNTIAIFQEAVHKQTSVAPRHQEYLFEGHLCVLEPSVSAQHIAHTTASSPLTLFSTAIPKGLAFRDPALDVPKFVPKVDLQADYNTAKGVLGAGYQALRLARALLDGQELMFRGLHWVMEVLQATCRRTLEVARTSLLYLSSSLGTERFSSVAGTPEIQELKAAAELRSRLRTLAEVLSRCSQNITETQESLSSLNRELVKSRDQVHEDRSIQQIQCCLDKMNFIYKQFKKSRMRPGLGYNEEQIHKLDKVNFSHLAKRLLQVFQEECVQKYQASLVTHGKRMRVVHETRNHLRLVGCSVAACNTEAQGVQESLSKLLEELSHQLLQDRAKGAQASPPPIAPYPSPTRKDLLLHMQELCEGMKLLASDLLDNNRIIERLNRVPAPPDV
Assay type: biochemical
Protocol: Test for the Inhibition of IKKε
IKKε—Kinase Assay (IKKepsilon)
The kinase assay is performed as 384-well flashplate assay (for example for Topcount measurement).
1 nM IKKε, 800 nM biotinylated IκKα(19-42) peptide (Biotin-C6-C6-[…]) and 10 μM ATP (spiked with 0.3 μCi of ^33P-ATP/well) are incubated at 30° C. for 2 hours in a total volume of 50 μl (10 mM MOPS, 10 mM Mg acetate, 0.1 mM EGTA, 1 mM dithiothreitol, 0.02% of Brij35, 0.1% of BSA, 0.1% of BioStab, pH 7.5) with or without test compound. The reaction is stopped using 25 μl of 200 mM EDTA. After 30 min at room temperature, the liquid is removed, and each well is washed three times with 100 μl of 0.9% sodium chloride solution. Non-specific reaction is determined in the presence of 3 μM MSC2119074 (BX-795). The radioactivity is measured using a Topcount (Perkin Elmer). The results (for example IC50 values) are calculated using program tools provided by the IT Department (for example AssayExplorer, Symyx).

SMILES | pIC50
CN1CCN(c2cnc3[nH]cc(-c4ccc(OC5CCOCC5)c(C#N)c4)c3c2)CC1 [Compound A17, 5-[5-(4-methylpiperazin-1-yl)-1H-pyrrolo[2,3-b]pyridin-3-yl]-2-tetrahydropyran-4-yloxybenzonitrile] | 5.52 to 6.52
CN1CCC(n2cc(-c3cnc4[nH]cc(-c5ccc(OC6CCOCC6)c(C#N)c5)c4c3)cn2)CC1 [Compound A20, 5-[5-[1-(1-methyl-4-piperidyl)pyrazol-4-yl]-1H-pyrrolo[2,3-b]pyridin-3-yl]-2-tetrahydropyran-4-yloxybenzonitrile] | > 6.52
N#Cc1cc(-c2c[nH]c3ncc(OCCN4CCOCC4)cc23)ccc1OC1CCOCC1 [Compound A21, 5-[5-(2-morpholinoethoxy)-1H-pyrrolo[2,3-b]pyridin-3-yl]-2-tetrahydropyran-4-yloxybenzonitrile] | > 6.52
CC1(COc2ccc(-c3c[nH]c4ncc(-c5cnn(C6CCNCC6)c5)cc34)cc2C#N)COC1 [Compound A24, 2-[(3-Methyloxetan-3-yl)methoxy]-5-[5-[1-(4-piperidyl)pyrazol-4-yl]-1H-pyrrolo[2,3-b]pyridin-3-yl]-benzonitrile] | > 6.52
N#Cc1cc(-c2c[nH]c3ncc(-c4cnn(C5COC5)c4)cc23)ccc1OC1CCOCC1 [Compound A26, 5-[5-[1-(Oxetan-3-yl)pyrazol-4-yl]-1H-pyrrolo[2,3-b]-pyridin-3-yl]-2-tetrahydropyran-4-yloxybenzonitrile] | > 6.52
N#Cc1cc(-c2c[nH]c3ncc(-c4cn(CCN5CCCC5)nn4)cc23)ccc1OC1CCOCC1 [Compound A27, 5-[5-[1-(2-Pyrrolidin-1-ylethyl)triazol-4-yl]-1H-pyrrolo-[2,3-b]pyridin-3-yl]-2-tetrahydropyran-4-yloxybenzo-nitrile] | > 6.52
Cn1cc(-c2cnc3[nH]cc(-c4cnc(OC5CCOCC5)c(C#N)c4)c3c2)cn1 [Compound A30, 5-[5-(1-Methylpyrazol-4-yl)-1H-pyrrolo[2,3-b]pyridin-3-yl]-2-tetrahydropyran-4-yloxypyridine-3-carbonitrile] | > 6.52
Cn1cc(-c2cnc3[nH]cc(-c4ccc(OC5COC5)c(C#N)c4)c3c2)cn1 [Compound A31, 5-[5-(1-methyl-1H-pyrazol-4-yl)-1H-pyrrolo[2,3-b]pyridin-3-yl]-2-(oxetan-3-yloxy)benzonitrile] | > 6.52
Cn1cc(-c2cnc3[nH]cc(-c4ccc(OCC5(C)COC5)c(C#N)c4)c3c2)cn1 [Compound A32, 2-(3-methyloxetan-3-ylmethoxy)-5-[5-(1-methyl-1H-pyrazol-4-yl)-1H-pyrrolo[2,3-b]pyridin-3-yl]benzonitrile] | > 6.52
N#Cc1cc(-c2c[nH]c3ncc(-c4cnn(CCN5CCCC5)c4)cc23)cnc1OC1CCOCC1 [Compound A33, 5-{5-[1-(2-Pyrrolidin-1-ylethyl)-1H-pyrazol-4-yl]-1H-pyrrolo[2,3-b]pyridin-3-yl}-2-(tetrahydropyran-4-yl-oxy)nicotinonitrile] | > 6.52
N#Cc1cc(-c2c[nH]c3ncc(-c4cnn(C5COC5)c4)cc23)ccc1OC1COC1 [Compound A34, 2-(oxetan-3-yloxy)-5-[5-(1-oxetan-3-yl-1H-pyrazol-4-yl)-1H-pyrrolo-[2,3-b]pyridin-3-yl]benzonitrile] | > 6.52
CC1(COc2ccc(-c3c[nH]c4ncc(-c5cnn(C6COC6)c5)cc34)cc2C#N)COC1 [Compound A35, 2-(3-methyloxetan-3-ylmethoxy)-5-[5-(1-oxetan-3-yl-1H-pyrazol-4-yl)-1H-pyrrolo[2,3-b]-pyridin-3-yl]benzonitrile] | > 6.52
CC1(COc2ccc(-c3c[nH]c4ncc(-c5cn[nH]c5)cc34)cc2C#N)COC1 [Compound A36, 2-(3-methyloxetan-3-ylmethoxy)-5-[5-(1H-pyrazol-4-yl)-1H-pyrrolo[2,3-b]pyridin-3-yl]benzonitrile] | > 6.52
N#Cc1cc(-c2c[nH]c3ncc(-c4cnn(C5COC5)c4)cc23)cnc1OC1CCOCC1 [Compound A37, 5-[5-(1-Oxetan-3-yl-1H-pyrazol-4-yl)-1H-pyrrolo-[2,3-b]pyridin-3-yl]-2-(tetrahydropyran-4-yloxy)-nicotinonitrile] | > 6.52
COCCn1cc(-c2cnc3[nH]cc(-c4cnc(OC5CCOCC5)c(C#N)c4)c3c2)cn1 [Compound A38, 5-{5-[1-(2-Methoxyethyl)-1H-pyrazol-4-yl]-1H-pyrrolo-[2,3-b]pyridin-3-yl}-2-(tetrahydropyran-4-yloxy)-nicotinonitrile] | > 6.52

Now from value to molecule:

pIC50 | SMILES
> 6.52 | N#Cc1cc(-c2c[nH]c3ncccc23)ccc1OC1CCOCC1 [Compound A1, 5-(1H-pyrrolo[2,3-b]pyridin-3-yl)-2-tetrahydropyran-4-yloxybenzonitrile]
> 6.52 | Cn1cc(-c2cnc3[nH]cc(-c4ccc(OC5CCOCC5)c(C#N)c4)c3c2)cn1 [Compound A4, 5-[5-(1-methylpyrazol-4-yl)-1H-pyrrolo[2,3-b]pyridin-3-yl]-2-tetrahydropyran-4-yloxybenzonitrile]
> 6.52 | N#Cc1cc(-c2c[nH]c3ncc(-c4cnn(CCN5CCOCC5)c4)cc23)ccc1OC1CCOCC1 [Compound A7, 5-[5-[1-(2-morpholinoethyl)pyrazol-4-yl]-1H-pyrrolo[2,3-b]pyridin-3-yl]-2-tetrahydropyran-4-yloxybenzonitrile]
> 6.52 | N#Cc1cc(-c2c[nH]c3ncc(-c4ccc(N5CCOCC5)cc4)cc23)ccc1OC1CCOCC1 [Compound A8, 5-[5-(4-morpholinophenyl)-1H-pyrrolo[2,3-b]pyridin-3-yl]-2-tetrahydropyran-4-yloxybenzonitrile]
> 6.52 | N#Cc1cc(-c2c[nH]c3ncc(-c4cnn(CCN5CCCC5)c4)cc23)ccc1OC1CCOCC1 [Compound A9, 5-[5-[1-(2-pyrrolidin-1-ylethyl)pyrazol-4-yl]-1H-pyrrolo[2,3-b]pyridin-3-yl]-2-tetrahydropyran-4-yloxybenzonitrile]
> 6.52 | COCCn1cc(-c2cnc3[nH]cc(-c4ccc(OC5CCOCC5)c(C#N)c4)c3c2)cn1 [Compound A10, 5-[5-[1-(2-methoxyethyl)pyrazol-4-yl]-1H-pyrrolo[2,3-b]pyridin-3-yl]-2-tetrahydropyran-4-yloxybenzonitrile]
> 6.52 | N#Cc1cc(-c2c[nH]c3ncc(-c4cnn(C5CCNCC5)c4)cc23)ccc1OC1CCOCC1 [Compound A12, 5-[5-(1-piperidin-4-yl-1H-pyrazol-4-yl)-1H-pyrrolo[2,3-b]pyridin-3-yl]-2-(tetrahydropyran-4-yloxy)benzonitrile]
> 6.52 | CN1CCC(Oc2ccc(-c3c[nH]c4ncc(-c5cnn(C)c5)cc34)cc2C#N)CC1 [Compound A13, 2-(1-methylpiperidin-4-yloxy)-5-[5-(1-methyl-1H-pyrazol-4-yl)-1H-pyrrolo[2,3-b]pyridin-3-yl]benzonitrile]
> 6.52 | N#Cc1cc(-c2c[nH]c3ncc(-c4cnn(CCO)c4)cc23)ccc1OC1CCOCC1 [Compound A15, 5-[5-[1-(2-hydroxyethyl)pyrazol-4-yl]-1H-pyrrolo[2,3-b]pyridin-3-yl]-2-tetrahydropyran-4-yloxybenzonitrile]
> 6.52 | CN1CCC(n2cc(-c3cnc4[nH]cc(-c5ccc(OC6CCOCC6)c(C#N)c5)c4c3)cn2)CC1 [Compound A16, 5-[5-[1-(1-methyl-4-piperidyl)pyrazol-4-yl]-1H-pyrrolo[2,3-b]pyridin-3-yl]-2-tetrahydropyran-4-yloxybenzonitrile]
> 6.52 | N#Cc1cc(-c2c[nH]c3ncc(-c4cnn(C5CCNCC5)c4)cc23)cnc1OC1CCOCC1 [Compound A18, 5-[5-[1-(4-piperidyl)pyrazol-4-yl]-1H-pyrrolo[2,3-b]pyridin-3-yl]-2-tetrahydropyran-4-yloxypyridine-3-carbonitrile]
> 6.52 | N#Cc1cc(-c2c[nH]c3ncc(-c4cn(C5CCNCC5)nn4)cc23)ccc1OC1CCOCC1 [Compound A22, 5-[5-[1-(4-piperidyl)triazol-4-yl]-1H-pyrrolo[2,3-b]pyridin-3-yl]-2-tetrahydropyran-4-yloxybenzonitrile]
> 6.52 | CN1CCC(n2cc(-c3cnc4[nH]cc(-c5ccc(OC6CCOCC6)c(C#N)c5)c4c3)nn2)CC1 [Compound A23, 5-[5-[1-(1-methyl-4-piperidyl)triazol-4-yl]-1H-pyrrolo[2,3-b]pyridin-3-yl]-2-tetrahydropyran-4-yloxybenzonitrile]
